Measurements from patent US10094834B2, “Method of selecting individualized brain cancer therapy” (TURUN YLIOPISTO, priority 2012, dated 2018).
Entries after “also recorded” stand apart in the source; their conditions may differ.

Legend:
Assay type in all cases: cell-based, human
T98G glioblastoma cells [1] = test: Apoptosis assay by sub-G0/G1 fraction estimation (nuclear fragmentation, PI/FACS); conditions: for apoptotic nuclear fragmentation (sub-G0/G1 fraction): T98G cells depleted of PME-1 (PME-1 siRNA 48 hrs), drug treatment 24 hrs; for effect on PME-1 siRNA and STS mediated apoptosis (nuclear fragmentation): T98G
Protocol: The percentage of the sub-G0/G1 fraction containing fragmented nuclei stained with Propidium iodide (PI) was taken as a measure of apoptotic cells. 3.5-4×10^4 cells were plated in 24-well plates, transfected with siRNA for 48 hrs, and then treated with indicated concentration of test compounds in fresh media. After 24 hrs of treatment, both floating and adherent cells were harvested by centrifugation. Cell pellets were resuspended in 400 μl of hypotonic PI buffer, containing 40 mM Tri-sodium citrate (Merck), 0.3% Triton X-100 (Sigma-Aldrich) and 50 μg/ml Propidium iodide (Sigma-Aldrich) in PBS, and incubated at room temperature for 10 minutes in dark. The flow cytometric analysis of PI stained nuclei was performed and the recorded data was analyzed using a FACScan flow cytometer and software (Becton Dickinson) respectively.
In experiments using pan-caspase inhibitor, cells were kept in growth media containing 30 μM Z-VAD-FMK starting from 18 hrs after transfection till the PI staining.
The T98G cells transfected with siRNA for 48 hrs were given drug treatments for 24 hrs and were subsequently lysed, and their nuclei were stained using hypotonic propidium iodide buffer. The lysates were analysed for changes in the sub-G0/G1 fraction of fragmented nuclei by flow cytometry (FACS) (FIG. 1B). Condensation and fragmentation of nucleus is a key biochemical feature of apoptosis and sub-G0/G1 analysis has been widely used for detection of apoptosis (FEBS Lett., 1986, 194(2):347-50; Cytometry, 1991, 12(4):323-329; Nature Protocols, 2006, 1:1458-1461).

U87MG glioblastoma cells = test: Colony formation assay, U87MG; conditions: PME-1 depleted versus scrambled siRNA, 2 days of treatment
Excerpt: (§1) Cells plated in very low density (4-6×10^3) in 6-well plates were allowed to grow for about 7 days until they form small colonies. These cells were then transfected with Scrambled or PME-1 siRNA using Lipofectamine RNAiMAX reagent (Invitrogen) according to the manufacturer's instructions. After 48 hrs, treatments were given with indicated concentration of chemical drugs for another 48 hrs. Cell colonies were washed with PBS, fixed with 3.7% formaldehyde and stained with 0.2% crystal violet solution (made in 10% ethanol) for 15 minutes at room temperature each. Excess stain was removed by repeated washings with PBS. Plates were dried and pictures were taken with Olympus SP-600UZ camera or Epson perfection […] scanner and analysed with ImageJ.

[2] = system: U251MG glioblastoma cells; test: Colony formation assay, U251MG; conditions: PME-1 depleted versus scrambled siRNA, 2 days of treatment
Excerpt: as §1

[3] = system: Caspase-3/7 in T98G cells; test: Caspase-3 and -7 activity, Caspase-Glo 3/7 Assay
Protocol: Caspase-3 and -7 activity was measured by luminescence based method, which utilize a substrate containing Caspase-3 and -7 target peptide DEVD, named Caspase-Glo 3/7 Assay (Promega Corp.). Assays were performed in white polystyrene 96-well plates (Nunc, Thermo Fisher Scientific Inc.) according to manufacturer's instructions and luminescence was measured with Perkin Elmer Victor2 Plate Reader.

T98G glioblastoma cells [4] = test: Colony formation assay, T98G
Excerpt: (§2) Cells plated in very low density (4-6×10^3) in 6-well plates were allowed to grow for about 7 days until they form small colonies. These cells were then transfected with Scrambled or PME-1 siRNA using Lipofectamine RNAiMAX reagent (Invitrogen) according to the manufacturer's instructions. After 48 hrs, treatments were given with indicated concentration of chemical drugs for another 48 hrs. Cell colonies were washed with PBS, fixed with 3.7% formaldehyde and stained with 0.2% crystal violet solution (made in 10% ethanol) for 15 minutes at room temperature each. Excess stain was removed by repeated washings with PBS. Plates were dried and pictures were taken with Olympus SP-600UZ camera or Epson perfection V700 scanner and analysed with ImageJ.
(§3) Next, the effect of PME-1 expression on the sensitivity of glioblastoma cells to STS was tested by colony formation assay in T98G glioblastoma cells and another glioblastoma cell line U118MG. For this experiment, these cells were grown in 6-well plates until the formation of small colonies which were then transfected with Scrambled or PME-1 siRNA for 48 hrs followed by treatment with STS at the indicated concentrations for another 48 hrs. […] Similar results were obtained with both glioblastoma cell lines.

[5] = system: U118MG glioblastoma cells; test: Colony formation assay, U118MG
Excerpt: as §2, §3

T98G glioblastoma cells [6] = test: Cell viability assay, CellTiter-glo (CTG)
Protocol: Cell viability was determined by CellTiter-glo (CTG) assay which measures the cellular ATP levels as an indicator of metabolically active and viable cells. CTG reagent kit was purchased from Promega Corp. and assays were performed according to their recommendations. Assays were performed in white polystyrene 96-well plates (Nunc, Thermo Fisher Scientific Inc.) and luminescence was measured with Perkin Elmer Victor2 Plate Reader.

[7] = PME-1 siRNA 48 hrs then drug 48 hrs
[8] = scrambled siRNA (intact PME-1), drug 48 hrs

TRAIL
apoptotic nuclear fragmentation (sub-G0/G1 fraction) (T98G glioblastoma cells [1]): did not show the same trend

z-VAD-fmk
effect on PME-1 siRNA and STS mediated apoptosis (nuclear fragmentation) (T98G glioblastoma cells [1]; PME-1 siRNA plus STS, pan-caspase inhibitor 30 μM throughout the experiment): complete reversal

C=C1[C@@H](O)[C@@H]2O[C@]3(CC[C@H](/C=C/[C@@H](C)[C@@H]4CC(C)=C[C@@]5(O[C@H](C[C@@](C)(O)C(=O)O)CC[C@H]5O)O4)O3)CC[C@H]2O[C@@H]1[C@@H](O)C[C@H](C)[C@H]1O[C@@]2(CCCCO2)CC[C@H]1C [okadaic acid]
effect on PME-1 siRNA and STS mediated apoptosis (nuclear fragmentation) (T98G glioblastoma cells [1]; PP2A inhibitor pre-treatment 24 hrs prior STS treatment): sufficient to rescue cells

COC(=O)[C@@]1(O)C[C@H]2O[C@]1(C)n1c3ccccc3c3c4c(c5c6ccccc6n2c5c31)C(=O)NC4 [K252a]
cell killing activity, colony formation (U87MG glioblastoma cells): enhanced the cell killing activity | apoptotic nuclear fragmentation (sub-G0/G1 fraction) (T98G glioblastoma cells [1]): levels even higher than STS itself | cell killing activity, colony formation [2]: enhanced the cell killing activity

CN[C@@H]1C[C@H]2O[C@@](C)([C@@H]1OC)n1c3ccccc3c3c4c(c5c6ccccc6n2c5c31)C(=O)NC4 [STS, [9S-(9α,10β,11β,13α)]-2,3,10,11,12,13-Hexa-hydro-10-methoxy-9-methyl-11-(methylamino)-9,13-epoxy-1H,9H-diindolo[1,2,3-gh:3′,2′,1′-lm]pyrrolo[3,4-j][1,7]benzo diazonin-1-one]
cell killing activity, colony formation (U87MG glioblastoma cells): enhanced the cell killing activity | apoptotic nuclear fragmentation (sub-G0/G1 fraction) (T98G glioblastoma cells [1]): very high level of nuclear fragmentation; also recorded: induce apoptosis in a dose dependent manner; also recorded: highly sensitive to STS induced cell death even at lowest concentrations | concentration at which drug alone started inducing cell death (T98G glioblastoma cells [1]; control (Scrambled siRNA transfected) T98G cells): higher than 50 nM | concentration at which limited cell death was observed with drug alone (T98G glioblastoma cells [1]; untransfected T98G cells): higher than 30 nM | increase of Caspase-3/7 activity ([3]; PME-1 depletion in combination with STS treatment): above 6 fold | colony formation (colonogenic potential) (T98G glioblastoma cells [4]; [7]): almost complete loss of colonies | colony formation (colonogenic potential) (T98G glioblastoma cells [4]; [8]): did not respond well | colony formation (colonogenic potential) [5, 7]: almost complete loss of colonies | colony formation (colonogenic potential) [5, 8]: did not respond well | cell killing activity, colony formation [2]: enhanced the cell killing activity | cell viability (CTG) (T98G glioblastoma cells [6]; PME-1 siRNA plus STS treatment): drastic decrease in the cell viability

CN[C@@H]1C[C@H]2O[C@@](C)([C@@H]1OC)n1c3ccccc3c3c4c(c5c6ccccc6n2c5c31)C(=O)N[C@H]4O [UCN-01, (9S)-2,3,10,11,12,13-Hexahydro-3α-hydroxy-10α-methoxy-9-methyl-11α-methyl amino-9β,13β-epoxy-1H,9H-diindolo[1,2,3-gh:3′,2′,1′-lm]pyrrolo[3,4-j][1,7]benzo diazonin-1-one]
apoptotic nuclear fragmentation (sub-G0/G1 fraction) (T98G glioblastoma cells [1]): levels even higher than STS itself

CC1CNCCN1S(=O)(=O)c1cccc2cnccc12 (centres unmarked) [H7]
apoptotic nuclear fragmentation (sub-G0/G1 fraction) (T98G glioblastoma cells [1]): moderate

PME-1 siRNA: PME-1 siRNA 5′-GGA AGU GAG UCU AUA AGC A-3′; SEQ ID NO:1 (GGAAGUGAGUCUAUAAGCA; listed as RNA, chemistry not given here)
increase of Caspase-3/7 activity ([3]; PME-1 depletion alone): more than 2 fold | cell viability (CTG) (T98G glioblastoma cells [6]; PME-1 siRNA alone): reduced cell viability by small fraction

CO[C@@H]1[C@H](N(C)C(=O)c2ccccc2)C[C@H]2O[C@]1(C)n1c3ccccc3c3c4c(c5c6ccccc6n2c5c31)C(=O)NC4 [PKC412, [9S-(9α, 10β,11β,13α)]-N-(2,3,10,11,12,13-Hexahydro-10-methoxy-9-methyl-1-oxo-9,13-epoxy-1H,9H-diindolo[1,2,3-gh:3′,2′,1′-lm]pyrrolo[3,4-j][1,7]benzodiazonin-11-yl)-N-methyl benzamide]
cell killing activity, colony formation (U87MG glioblastoma cells): enhanced the cell killing activity | apoptotic nuclear fragmentation (sub-G0/G1 fraction) (T98G glioblastoma cells [1]): levels even higher than STS itself | cell killing activity, colony formation [2]: enhanced the cell killing activity

O=C1NC(=O)c2c1c1c3ccccc3n3c1c1c2c2ccccc2n1C1CCC3O1 [SB 218078, 9,10,11,12-Tetrahydro-9,12-epoxy-1H-diindolo[1,2,3-fg:3′,2′,1′-kl]pyrrolo[3,4-i][1,6]benzodi-azocine-1,3(2H)-dione]
apoptotic nuclear fragmentation (sub-G0/G1 fraction) (T98G glioblastoma cells [1]): moderate levels of apoptosis at higher concentration

C[C@]12O[C@H](C[C@]1(O)CO)n1c3ccccc3c3c4c(c5c6ccccc6n2c5c31)CNC4=O [CEP-701, (9S,10S,12R)-2,3,9,10,11,12-Hexahydro-10-hydroxy-10-(hydroxymethyl)-9-methyl-9,12-epoxy-1H-diindolo[1,2,3-fg:3′,2′,1′-kl]pyrrolo[3,4-i][1,6]benzo di-azocin-1-one]
apoptotic nuclear fragmentation (sub-G0/G1 fraction) (T98G glioblastoma cells [1]): levels even higher than STS itself
